System: hemoglobin-haptoglobin complex
Experiment: Stability of hemoglobin (as hemoglobin-haptoglobin complex) in samples preserved at 37° C. in preservation solution containing 1 unit/L haptoglobin, Hb measured by latex agglutination method (Examples 1 to 7)
Set-up: species or system human
Summary of the method: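 Latex agglutination (anti-human hemoglobin rabbit polyclonal latex) measured Hb in samples stored at 37 °C up to 21 days; values expressed as % recovery versus day 0. Preservation solution: HEPES 40 mmol/L pH 6.8, BSA 0.1%, NaN3 0.1%, haptoglobin 1 unit/L, phenylboronic acid 0–100 mmol/L, optional sugars; ~300 µg/L Hb, 0.5% feces or none.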

[1] = Feces 3, phenylboronic acid 0.5 mmol/L, 37° C., 7 days
[2] = Feces 3, phenylboronic acid 0.5 mmol/L, 37° C., 14 days
[3] = Feces 3, phenylboronic acid 0.5 mmol/L, 37° C., 21 days
[4] = Feces 3, phenylboronic acid 1 mmol/L, 37° C., 7 days
[5] = Feces 3, phenylboronic acid 1 mmol/L, 37° C., 14 days
[6] = Feces 3, phenylboronic acid 1 mmol/L, 37° C., 21 days
[7] = Feces 3, phenylboronic acid 15 mmol/L, 37° C., 0 days
[8] = Feces 3, phenylboronic acid 15 mmol/L, 37° C., 7 days
[9] = Feces 3, phenylboronic acid 15 mmol/L, 37° C., 14 days
[10] = Feces 3, phenylboronic acid 15 mmol/L, 37° C., 21 days
[11] = Feces 3, phenylboronic acid 50 mmol/L, 37° C., 0 days
[12] = Feces 3, phenylboronic acid 50 mmol/L, 37° C., 7 days
[13] = Feces 3, phenylboronic acid 50 mmol/L, 37° C., 14 days
[14] = Feces 3, phenylboronic acid 50 mmol/L, 37° C., 21 days
[15] = Feces 3, phenylboronic acid 100 mmol/L, 37° C., 0 days
[16] = Feces 3, phenylboronic acid 100 mmol/L, 37° C., 7 days
[17] = Feces 3, phenylboronic acid 100 mmol/L, 37° C., 14 days
[18] = Feces 3, phenylboronic acid 100 mmol/L, 37° C., 21 days
[19] = No feces, phenylboronic acid 0.5 mmol/L, 37° C., 7 days
[20] = No feces, phenylboronic acid 0.5 mmol/L, 37° C., 14 days
[21] = No feces, phenylboronic acid 0.5 mmol/L, 37° C., 21 days
[22] = No feces, phenylboronic acid 1 mmol/L, 37° C., 7 days
[23] = No feces, phenylboronic acid 1 mmol/L, 37° C., 14 days
[24] = No feces, phenylboronic acid 1 mmol/L, 37° C., 21 days
[25] = No feces, phenylboronic acid 15 mmol/L, 37° C., 0 days
[26] = No feces, phenylboronic acid 15 mmol/L, 37° C., 7 days
[27] = No feces, phenylboronic acid 15 mmol/L, 37° C., 14 days
[28] = No feces, phenylboronic acid 15 mmol/L, 37° C., 21 days
[29] = No feces, phenylboronic acid 50 mmol/L, 37° C., 0 days
[30] = No feces, phenylboronic acid 50 mmol/L, 37° C., 7 days
[31] = No feces, phenylboronic acid 50 mmol/L, 37° C., 14 days
[32] = No feces, phenylboronic acid 50 mmol/L, 37° C., 21 days
[33] = No feces, phenylboronic acid 100 mmol/L, 37° C., 0 days
[34] = No feces, phenylboronic acid 100 mmol/L, 37° C., 7 days
[35] = No feces, phenylboronic acid 100 mmol/L, 37° C., 14 days
[36] = No feces, phenylboronic acid 100 mmol/L, 37° C., 21 days

SMILES: OB(O)c1ccccc1 [phenylboronic acid]
- Recovery ratio with respect to Hb concentration after 0 days (Feces 3, phenylboronic acid 0.5 mmol/L, 37° C., 0 days): 100%
- Hb concentration [1]: 133 µg/L
- Recovery ratio with respect to Hb concentration after 0 days [1]: 47%
- Hb concentration [2]: 104 µg/L
- Recovery ratio with respect to Hb concentration after 0 days [2]: 37%
- Hb concentration [3]: 93 µg/L
- Recovery ratio with respect to Hb concentration after 0 days [3]: 33%
- Recovery ratio with respect to Hb concentration after 0 days (Feces 3, phenylboronic acid 1 mmol/L, 37° C., 0 days): 100%
- Hb concentration [4]: 159 µg/L
- Recovery ratio with respect to Hb concentration after 0 days [4]: 57%
- Hb concentration [5]: 131 µg/L
- Recovery ratio with respect to Hb concentration after 0 days [5]: 47%
- Hb concentration [6]: 115 µg/L
- Recovery ratio with respect to Hb concentration after 0 days [6]: 41%
- Hb concentration (Feces 3, phenylboronic acid 15 mmol/L, no sugar, 0 days at 37° C.): 288 µg/L
- Hb concentration (Feces 3, phenylboronic acid 15 mmol/L, no sugar, 7 days at 37° C.): 224 µg/L
- Hb concentration (Feces 3, phenylboronic acid 15 mmol/L, no sugar, 14 days at 37° C.): 200 µg/L
- Hb concentration (Feces 3, phenylboronic acid 15 mmol/L, no sugar, 21 days at 37° C.): 185 µg/L
- Hb concentration [7]: 288 µg/L
- Recovery ratio with respect to Hb concentration after 0 days [7]: 100%
- Hb concentration [8]: 224 µg/L
- Recovery ratio with respect to Hb concentration after 0 days [8]: 78%
- Hb concentration [9]: 200 µg/L
- Recovery ratio with respect to Hb concentration after 0 days [9]: 69%
- Hb concentration [10]: 185 µg/L
- Recovery ratio with respect to Hb concentration after 0 days [10]: 64%
- Hb concentration [11]: 274 µg/L
- Recovery ratio with respect to Hb concentration after 0 days [11]: 100%
- Hb concentration [12]: 204 µg/L
- Recovery ratio with respect to Hb concentration after 0 days [12]: 74%
- Hb concentration [13]: 176 µg/L
- Recovery ratio with respect to Hb concentration after 0 days [13]: 64%
- Hb concentration [14]: 158 µg/L
- Recovery ratio with respect to Hb concentration after 0 days [14]: 58%
- Hb concentration [15]: 247 µg/L
- Recovery ratio with respect to Hb concentration after 0 days [15]: 100%
- Hb concentration [16]: 156 µg/L
- Recovery ratio with respect to Hb concentration after 0 days [16]: 63%
- Hb concentration [17]: 88 µg/L
- Recovery ratio with respect to Hb concentration after 0 days [17]: 36%
- Hb concentration [18]: 53 µg/L
- Recovery ratio with respect to Hb concentration after 0 days [18]: 21%
- Recovery ratio with respect to Hb concentration after 0 days (No feces, phenylboronic acid 0.5 mmol/L, 37° C., 0 days): 100%
- Hb concentration [19]: 248 µg/L
- Recovery ratio with respect to Hb concentration after 0 days [19]: 96%
- Hb concentration [20]: 243 µg/L
- Recovery ratio with respect to Hb concentration after 0 days [20]: 95%
- Hb concentration [21]: 246 µg/L
- Recovery ratio with respect to Hb concentration after 0 days [21]: 96%
- Recovery ratio with respect to Hb concentration after 0 days (No feces, phenylboronic acid 1 mmol/L, 37° C., 0 days): 100%
- Hb concentration [22]: 244 µg/L
- Recovery ratio with respect to Hb concentration after 0 days [22]: 92%
- Hb concentration [23]: 241 µg/L
- Recovery ratio with respect to Hb concentration after 0 days [23]: 91%
- Hb concentration [24]: 244 µg/L
- Recovery ratio with respect to Hb concentration after 0 days [24]: 92%
- Hb concentration (No feces, phenylboronic acid 15 mmol/L, no sugar, 0 days at 37° C.): 286 µg/L
- Hb concentration (No feces, phenylboronic acid 15 mmol/L, no sugar, 7 days at 37° C.): 262 µg/L
- Hb concentration (No feces, phenylboronic acid 15 mmol/L, no sugar, 14 days at 37° C.): 253 µg/L
- Hb concentration [25]: 286 µg/L
- Recovery ratio with respect to Hb concentration after 0 days [25]: 100%
- Hb concentration [26]: 262 µg/L
- Recovery ratio with respect to Hb concentration after 0 days [26]: 92%
- Hb concentration [27]: 253 µg/L
- Recovery ratio with respect to Hb concentration after 0 days [27]: 88%
- Hb concentration [28]: 264 µg/L
- Recovery ratio with respect to Hb concentration after 0 days [28]: 92%
- Hb concentration [29]: 260 µg/L
- Recovery ratio with respect to Hb concentration after 0 days [29]: 100%
- Hb concentration [30]: 242 µg/L
- Recovery ratio with respect to Hb concentration after 0 days [30]: 93%
- Hb concentration [31]: 228 µg/L
- Recovery ratio with respect to Hb concentration after 0 days [31]: 88%
- Hb concentration [32]: 235 µg/L
- Recovery ratio with respect to Hb concentration after 0 days [32]: 90%
- Hb concentration [33]: 239 µg/L
- Recovery ratio with respect to Hb concentration after 0 days [33]: 100%
- Hb concentration [34]: 198 µg/L
- Recovery ratio with respect to Hb concentration after 0 days [34]: 83%
- Hb concentration [35]: 183 µg/L
- Recovery ratio with respect to Hb concentration after 0 days [35]: 77%
- Hb concentration [36]: 178 µg/L
- Recovery ratio with respect to Hb concentration after 0 days [36]: 74%
- apparent recovery ratio (addition of 50 mmol/L or more phenylboronic acid): decreased
- decrease in the apparent recovery ratios (phenylboronic acid 50 mmol/L in preservation solutions to which a sugar (100 mmol/L) was added): not observed
- phenylboronic acid concentration at which the recovery ratio of hemoglobin reached the maximum (samples containing feces, 37° C.): 15 mmol/L
- improvement of recovery ratio by addition of phenylboronic acid (samples containing no fecal specimens): not observed

Source: patent US12215140B2, “Method of stabilizing protein contained in specimen and solution for stabilizing protein contained in specimen” (EIKEN KAGAKU KABUSHIKI KAISHA, priority 2018, dated 2025)
